pIC50: −log10 of the molar value.
Molecular target: T1, full length human TPH1 (Homo sapiens, UniProt P17752)
T1 construct: To generate the enzyme, full length human TPH1 is cloned into the plasmid pET20b(+); made in house; host or cells: E. coli
T1 sequence (P17752 1-444): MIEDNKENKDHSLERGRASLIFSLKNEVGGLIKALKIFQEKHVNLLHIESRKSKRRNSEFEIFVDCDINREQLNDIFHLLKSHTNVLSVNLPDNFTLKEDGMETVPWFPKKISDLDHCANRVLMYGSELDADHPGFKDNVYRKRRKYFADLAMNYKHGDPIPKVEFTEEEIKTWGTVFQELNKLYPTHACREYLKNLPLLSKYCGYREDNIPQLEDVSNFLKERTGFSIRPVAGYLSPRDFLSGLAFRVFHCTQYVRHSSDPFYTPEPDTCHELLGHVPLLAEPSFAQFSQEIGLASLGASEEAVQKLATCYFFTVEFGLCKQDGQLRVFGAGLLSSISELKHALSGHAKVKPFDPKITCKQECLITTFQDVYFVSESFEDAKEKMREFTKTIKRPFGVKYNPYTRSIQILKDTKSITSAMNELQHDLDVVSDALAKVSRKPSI
Experiment: Biochemical in vitro assay using fluorescence readout (TPH1 enzyme activity)
Settings: Table 1, mean where determined several times
Outline: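 IC50 (mean of repeats) derived from 5-hydroxy-L-tryptophan fluorescence at 540 nm (300 nm excitation) relative to vehicle, after perchloric acid stop. Reaction: 60 min, 15° C., pH 7.6 Tris-HCl, 40 μM L-tryptophan, 100 μM 6-methyltetrahydropterine, DTT, catalase, with 40-80 nM purified full-length human TPH1 from E. coli.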

SMILES	pIC50
COC(=O)c1ccc(C2c3c(nc4n3CCCC4)CCN2C(=O)COc2ccc(NS(C)(=O)=O)nc2Cl)c(F)c1 (centres unmarked) [Example 1.23.1, methyl-4-(2-(2-((2-chloro-6-(methylsulfonamido)pyridin-3-yl)oxy)acetyl)-1,2,3,4,6,7,8,9-octahydroimidazo[1,2-a:5,4-c′]dipyridin-1-yl)-3-fluorobenzoate]	7.68
COC(=O)c1ccc([C@@H]2c3c(nc4n3CCCC4)CCN2C(=O)COc2ccc(C(=O)NC3CC3)nc2Cl)c(F)c1 [Example 1.23.2, methyl (R)-4-(2-(2-((2-chloro-6-(cyclopropylcarbamoyl)pyridin-3-yl)oxy)acetyl)-1,2,3,4,6,7,8,9-octahydroimidazo[1,2-a:5,4-c′]dipyridin-1-yl)-3-fluorobenzoate]	7.25
CC(C)(O)c1ccc(C2c3c(nc4n3CCCC4)CCN2C(=O)COc2ccc(C(=O)NC3CC3)nc2Cl)c(F)c1 (centres unmarked) [Example 1.24.1, 6-chloro-N-cyclopropyl-5-(2-(1-(2-fluoro-4-(2-hydroxypropan-2-yl)phenyl)-3,4,6,7,8,9-hexahydroimidazo[1,2-a:5,4-c′]dipyridin-2(1H)-yl)-2-oxoethoxy)picolinamide]	7.17
CC(C)(O)c1ccc(C2c3c(nc4n3CCCC4)CCN2C(=O)COc2ccc(NS(C)(=O)=O)nc2Cl)c(F)c1 (centres unmarked) [Example 1.24.2, N-(6-chloro-5-(2-(1-(2-fluoro-4-(2-hydroxypropan-2-yl)phenyl)-3,4,6,7,8,9-hexahydroimidazo[1,2-a:5,4-c′]dipyridin-2(1H)-yl)-2-oxoethoxy)pyridin-2-yl)methanesulfonamide]	6.88
COC(C)(C)c1ccc(C2c3c(nc4n3CCCC4)CCN2C(=O)COc2ccc(C(=O)NC3CC3)nc2Cl)c(F)c1 (centres unmarked) [Example 1.25.1, 6-chloro-N-cyclopropyl-5-(2-(1-(2-fluoro-4-(2-methoxypropan-2-yl)phenyl)-3,4,6,7,8,9-hexahydroimidazo[1,2-a:5,4-c′]dipyridin-2(1H)-yl)-2-oxoethoxy)picolinamide]	7.17
COC(C)(C)c1ccc(C2c3c(nc4n3CCCC4)CCN2C(=O)COc2ccc(NS(C)(=O)=O)nc2Cl)c(F)c1 (centres unmarked) [Example 1.25.2, N-(6-chloro-5-(2-(1-(2-fluoro-4-(2-methoxypropan-2-yl)phenyl)-3,4,6,7,8,9-hexahydroimidazo[1,2-a:5,4-c′]dipyridin-2(1H)-yl)-2-oxoethoxy)pyridin-2-yl)methanesulfonamide]	6.52
COCc1ccc(C2c3c(nc4n3CCCC4)CCN2C(=O)COc2ccc(C(=O)NC3CC3)nc2Cl)c(F)c1 (centres unmarked) [Example 1.26.1, 6-chloro-N-cyclopropyl-5-(2-(1-(2-fluoro-4-(methoxymethyl)phenyl)-3,4,6,7,8,9-hexahydroimidazo[1,2-a:5,4-c′]dipyridin-2(1H)-yl)-2-oxoethoxy)picolinamide]	7.72
COCc1ccc(C2c3c(nc4n3CCCC4)CCN2C(=O)COc2ccc(NS(C)(=O)=O)nc2Cl)c(F)c1 (centres unmarked) [Example 1.26.2, N-(6-chloro-5-(2-(1-(2-fluoro-4-(methoxymethyl)phenyl)-3,4,6,7,8,9-hexahydroimidazo[1,2-a:5,4-c′]dipyridin-2(1H)-yl)-2-oxoethoxy)pyridin-2-yl)methanesulfonamide]	7.60
COCCOc1ccc(C2c3c(nc4n3CCCC4)CCN2C(=O)COc2ccc(C(=O)NC3CC3)nc2Cl)c(F)c1 (centres unmarked) [Example 1.27.1, 6-chloro-N-cyclopropyl-5-(2-(1-(2-fluoro-4-(2-methoxyethoxy)phenyl)-3,4,6,7,8,9-hexahydroimidazo[1,2-a:5,4-c′]dipyridin-2(1H)-yl)-2-oxoethoxy)picolinamide]	7.22
COCCOc1ccc(C2c3c(nc4n3CCCC4)CCN2C(=O)COc2ccc(NS(C)(=O)=O)nc2Cl)c(F)c1 (centres unmarked) [Example 1.27.2, N-(6-chloro-5-(2-(1-(2-fluoro-4-(2-methoxyethoxy)phenyl)-3,4,6,7,8,9-hexahydroimidazo[1,2-a:5,4-c′]dipyridin-2(1H)-yl)-2-oxoethoxy)pyridin-2-yl)methanesulfonamide]	7.47
O=C(NC1CC1)c1ccc(OCC(=O)N2CCc3nc4n(c3C2c2ccc(OCCO)cc2F)CCCC4)c(Cl)n1 (centres unmarked) [Example 1.28.1, 6-chloro-N-cyclopropyl-5-(2-(1-(2-fluoro-4-(2-hydroxyethoxy)phenyl)-3,4,6,7,8,9-hexahydroimidazo[1,2-a:5,4-c′]dipyridin-2(1H)-yl)-2-oxoethoxy)picolinamide]	7.27
CS(=O)(=O)Nc1ccc(OCC(=O)N2CCc3nc4n(c3C2c2ccc(OCCO)cc2F)CCCC4)c(Cl)n1 (centres unmarked) [Example 1.28.2, N-(6-chloro-5-(2-(1-(2-fluoro-4-(2-hydroxyethoxy)phenyl)-3,4,6,7,8,9-hexahydroimidazo[1,2-a:5,4-c′]dipyridin-2(1H)-yl)-2-oxoethoxy)pyridin-2-yl)methanesulfonamide]	7.68
CS(=O)(=O)Nc1ccc(OCC(=O)N2CCc3nc4n(c3C2c2ccc(Cl)cc2F)CCC4)c(Cl)n1 (centres unmarked) [Example 2.1.1, N-(6-chloro-5-(2-(1-(4-chloro-2-fluorophenyl)-3,4,7,8-tetrahydro-1H-pyrrolo[2′,1′:2,3]imidazo[4,5-c]pyridin-2(6H)-yl)-2-oxoethoxy)pyridin-2-yl)methanesulfonamide]	7.89
CCc1nc(NS(C)(=O)=O)ccc1OCC(=O)N1CCc2nc3n(c2C1c1ccc(Cl)cc1F)CCC3 (centres unmarked) [Example 2.1.2, N-(5-(2-(1-(4-chloro-2-fluorophenyl)-3,4,7,8-tetrahydro-1H-pyrrolo[2′,1′:2,3]imidazo[4,5-c]pyridin-2(6H)-yl)-2-oxoethoxy)-6-ethylpyridin-2-yl)methanesulfonamide]	7.89
CCc1nc(N2CCCS2(=O)=O)ccc1OCC(=O)N1CCc2nc3n(c2C1c1ccc(Cl)cc1F)CCC3 (centres unmarked) [Example 2.1.3, 1-(1-(4-chloro-2-fluorophenyl)-3,4,7,8-tetrahydro-1H-pyrrolo[2′,1′:2,3]imidazo[4,5-c]pyridin-2(6H)-yl)-2-((6-(1,1-dioxidoisothiazolidin-2-yl)-2-ethylpyridin-3-yl)oxy)ethanone]	8.10
Cc1ccc(C2c3c(nc4n3CCC4)CCN2C(=O)COc2ccc(NS(C)(=O)=O)nc2Cl)c(F)c1 (centres unmarked) [Example 2.2.1, N-(6-chloro-5-(2-(1-(2-fluoro-4-methylphenyl)-3,4,7,8-tetrahydro-1H-pyrrolo[2′,1′:2,3]imidazo[4,5-c]pyridin-2(6H)-yl)-2-oxoethoxy)pyridin-2-yl)methanesulfonamide]	7.82
CCc1nc(NS(C)(=O)=O)ccc1OCC(=O)N1CCc2nc3n(c2C1c1ccc(C)c(F)c1F)CCC3 (centres unmarked) [Example 2.3.1, N-(5-(2-(1-(2,3-difluoro-4-methylphenyl)-3,4,7,8-tetrahydro-1H-pyrrolo[2′,1′:2,3]imidazo[4,5-c]pyridin-2(6H)-yl)-2-oxoethoxy)-6-ethylpyridin-2-yl)methanesulfonamide]	8.10
CCc1nc(N2CCCS2(=O)=O)ccc1OCC(=O)N1CCc2nc3n(c2C1c1sc(C)nc1C)CCC3 (centres unmarked) [Example 2.4.1, 1-(1-(2,4-dimethylthiazol-5-yl)-3,4,7,8-tetrahydro-1H-pyrrolo[2′,1′:2,3]imidazo[4,5-c]pyridin-2(6H)-yl)-2-((6-(1,1-dioxidoisothiazolidin-2-yl)-2-ethylpyridin-3-yl)oxy)ethanone]	8.10
CCc1nc(NS(C)(=O)=O)ccc1OCC(=O)N1CCc2nc3n(c2[C@@H]1c1sc(C)nc1C)CCC3 [Example 2.4.2, (R)-N-(5-(2-(1-(2,4-dimethylthiazol-5-yl)-3,4,7,8-tetrahydro-1H-pyrrolo[2′,1′:2,3]imidazo[4,5-c]pyridin-2(6H)-yl)-2-oxoethoxy)-6-ethylpyridin-2-yl)methanesulfonamide]	8.15
CCc1nc(C(=O)NC2CC2)ccc1OCC(=O)N1CCc2nc3n(c2[C@@H]1c1sc(C)nc1C)CCC3 [Example 2.4.3, (R)-N-cyclopropyl-5-(2-(1-(2,4-dimethylthiazol-5-yl)-3,4,7,8-tetrahydro-1H-pyrrolo[2′,1′:2,3]imidazo[4,5-c]pyridin-2(6H)-yl)-2-oxoethoxy)-6-ethylpicolinamide]	8.05
CCc1nc(N2CCCS2(=O)=O)ccc1OCC(=O)N1CCc2nc3n(c2[C@@H]1c1sc(C)nc1C)CCC3 [Example 2.4.4, (R)-1-(1-(2,4-dimethylthiazol-5-yl)-3,4,7,8-tetrahydro-1H-pyrrolo[2′,1′:2,3]imidazo[4,5-c]pyridin-2(6H)-yl)-2-((6-(1,1-dioxidoisothiazolidin-2-yl)-2-ethylpyridin-3-yl)oxy)ethanone]	8.15
CS(=O)(=O)Nc1ccc(OCC(=O)N2CCc3nc4n(c3C2c2ccc(Cl)cc2F)CCCCC4)c(Cl)n1 (centres unmarked) [Example 3.1.1, N-(6-chloro-5-(2-(1-(4-chloro-2-fluorophenyl)-3,4,7,8,9,10-hexahydro-1H-pyrido[4′,3′:4,5]imidazo[1,2-a]azepin-2(6H)-yl)-2-oxoethoxy)pyridin-2-yl)methanesulfonamide]	7.59
Cc1ccc(C2c3c(nc4n3CCCCC4)CCN2C(=O)COc2ccc(NS(C)(=O)=O)nc2Cl)c(F)c1 (centres unmarked) [Example 3.2.1, N-(6-chloro-5-(2-(1-(2-fluoro-4-methylphenyl)-3,4,7,8,9,10-hexahydro-1 H-pyrido[4′,3′:4,5]imidazo-[1,2-a]azepin-2(6H)-yl)-2-oxoethoxy)pyridin-2-yl)methanesulfonamide]	7.68
